Read-outs that look alike come from different tables or passages of the source.
How the values were obtained:
[1] = system: Human leukemia cells (HL-60); test: Cell growth inhibition by direct cell counting, HL-60; type: cell-based; conditions: HL-60 cells, drug concentration at 50% cell growth inhibition, read-out: IG50 (the source's name)
Protocol: (§1) Cells were taken out carefully from liquid nitrogen (Frozen pipes), and the cell freezing medium was thawed rapidly in water bath at 37° C. in order to rapidly pass through the temperature range of 0 to 5° C. within which the cell is easily damaged. Cell suspension was sucked with pipette gun and put it into centrifugal tubes under sterile condition, then was centrifuged for 3 min at 1300 r/min. The supernatant was gently discarded, and then added with a fresh medium to pipette and mix the cells. Finally, the cells were transferred into culture flasks, and cultured in a carbon dioxide incubator. The medium was changed once after 24 h.
(§2) Human leukemia cells (HL-60) were cultured in RPMI1640 medium containing 10% (v/v) fetal bovine serum, 100 U/mL penicillin and 100 μg/mL streptomycin. Murine leukemia cells (P388) and murine multidrug resistant leukemia cells (P388/Adr) were cultured in Eagle's minimum essential medium (MEM) containing 10% (v/v) fetal bovine serum, 100 U/mL penicillin and 100 μg/mL streptomycin. All of the above cell lines were incubated in 37° C. incubator with 5% carbon dioxide saturated humidity.
(§3) After resuscitation, the cells were passed for 2-3 generations till they became stable, then they were used for the experiments. Each passage was based on the standard that all cells were spread over the bottoms of culture flasks.
(§4) Cell suspensions of a certain density (5×10^4 cells/mL) were plated at 24-well plate, 2 mL/well. Different concentration of drugs were added thereto, and incubated or some time. Then, cells were counted under the microscope. The ratio of total number of cells in test group to the total number of cells in control group is the cell growth inhibition rate under the concentration condition. The total number of cells in cell suspension, which were treated by drugs, could be counted by blood count board. Inhibition rate was calculated using the formula: […]
(§5) According to cell growth inhibition rate of each concentration of drugs, half inhibitory concentration could be calculated. (IG50 is the drug concentration, when cell growth inhibition rate was 50%.)

[2] = system: Human Breast Cancer Cells (MCF-7); test: Cell growth inhibition by direct cell counting, MCF-7; type: cell-based; conditions: Homo sapiens, MCF7; MCF-7 cells; read-out: IG50 MCF-7
Protocol: as §1, §3, §4, §5
(§6) 7) The Results of the Growth Inhibitory Activity of the Compounds on Human Breast Cancer Cells (MCF-7) and Human Multidrug Resistant Breast Cancer Cells (MCF-7/Adr) were Listed in Table 3.

[3] = system: Murine leukemia cells (P388); test: Cell growth inhibition by direct cell counting, P388; type: cell-based; conditions: read-out: IG50 P388
Protocol: as §1, §2, §3, §4, §5
(§7) 6) The Results of the Growth Inhibitory Activity of the Compounds on Murine Leukemia Cells (P388) and Murine Multidrug Resistant Leukemia Cells (P388/Adr) were Listed in Table 2.

[4] = system: murine multidrug resistant leukemia cells (P388/Adr); test: Cell growth inhibition by direct cell counting, P388/Adr; type: cell-based; conditions: read-out: IG50 P388/Adr
Protocol: as §1, §2, §3, §4, §5, §7

[5] = system: Human Multidrug Resistant Breast Cancer Cells (MCF-7/Adr); test: Cell growth inhibition by direct cell counting, MCF-7/Adr; type: cell-based; conditions: Homo sapiens, NCI/ADR-RES; MCF-7/Adr multidrug resistant cells; read-out: IG50 MCF-7/Adr
Protocol: as §1, §3, §4, §5, §6

IC50 [2] | melting point | SMILES | IC50 [1] | further results
 |  | C[C@H]1[C@@H](Oc2ccc(CN3CCN(C)CC3)cc2)O[C@@H]2O[C@@]3(C)CC[C@H]4[C@H](C)CC[C@@H]1[C@@]24OO3 [Example 7, (10S)—O-[4-((4-methylpiperazin-1-yl)methyl)phenyl]-dihydroartemisinin] | 0.12 µM | 
 |  | CC1CCC2C(C)[C@@H](Oc3ccc(CN4CCN(C(C)C)CC4)cc3)OC3OC4(C)CCC1C32OO4 (stereo partly drawn) [Example 9, (10S)—O-[4-((4-isopropylpiperazin-1-yl)methyl)phenyl]-dihydroartemisinin] | 0.071 µM | 
 |  | CC1CCC2C(C)C(Oc3ccc(CN4CCN(Cc5ccccc5)CC4)cc3)OC3OC4(C)CCC1C32OO4 [Example 16, 10-O-[4-[(4-benzylpiperazin-1-yl)methyl]phenyl]-(10S)-dihydroartemisinin] | 0.105 µM | 
0.123 µM | 165 to 167 °C | C[C@H]1[C@@H](Oc2ccc(/C=C/C(=O)N3CCCC3)cc2)O[C@@H]2O[C@]3(C)CC[C@H]4[C@H](C)CC[C@@H]1[C@@]24OO3 [Example 20, (10S)—O-{4-[3-oxo-3-(pyrrolidin-1-yl)-1-(E)-propen-1-yl]phenyl}-dihydroartemisinin] |  | 
 |  | CC1CCC2C(C)[C@@H](Oc3ccc(/C=C/C(=O)N4CCN(c5ccccc5)CC4)cc3)OC3OC4(C)CCC1C32OO4 (stereo partly drawn) [Example 26, (10S)—O-{4-[3-oxo-3-(4-phenylpiperazin-1-yl)-1-(E)-propen-1-yl]phenyl}-dihydroartemisinin] |  | IC50 [3]: 0.145 µM; IC50 [4]: 0.153 µM
 |  | CCN1CCN(Cc2ccc(O[C@H]3O[C@@H]4O[C@@]5(C)CC[C@H]6[C@H](C)CC[C@@H]([C@H]3C)[C@@]46OO5)cc2)CC1 [Example 8, (10S)—O-[4-((4-ethylpiperazin-1-yl)methyl)phenyl]-dihydroartemisinin] | 0.083 µM | 
3.23 µM | 73 to 74 °C | C[C@H]1[C@@H](Oc2ccc(CC(=O)N3CCCC3)cc2)O[C@@H]2O[C@]3(C)CC[C@@H]4[C@H](C)CC[C@@H]1[C@@]24OO3 [Example 33, (10S)—O-{4-[2-(pyrrolidin-1-yl)-2-oxoethyl]phenyl}-dihydroartemisinin] |  | IC50 [5]: 0.122 µM
0.063 µM | 160 to 163 °C | C[C@H]1[C@@H](Oc2ccc(/C=C/C(=O)Oc3ccc(/C=C/C(=O)N4CCCCC4)cc3)cc2)O[C@@H]2O[C@]3(C)CC[C@H]4[C@H](C)CC[C@@H]1[C@@]24OO3 [Example 31, 4-[(10S)-dihydroartemisinin-10-O-yl]phenyl-acrylic acid-4-[3-oxo-3-(piperidin-1-yl)-1-(E)-propen-1-yl]phenyl ester] |  | 
 |  | CC1CCC2C(C)[C@@H](Oc3ccc(CN4CCN(CC=Cc5ccccc5)CC4)cc3)OC3OC4(C)CCC1C32OO4 (stereo partly drawn) [Example 17, 10-O-[4-[(4-cinnamylpiperazin-1-yl)methyl]phenyl]-(10S)-dihydroartemisinin] | 0.059 µM | 
1.55 µM | 172 to 173 °C | C[C@H]1[C@@H](Oc2ccc(CC(=O)Nc3ccccc3)cc2)O[C@@H]2O[C@]3(C)CC[C@@H]4[C@H](C)CC[C@@H]1[C@@]24OO3 [Example 47, (10S)—O-[4-(2-phenylamino-2-oxoethyl)phenyl]-dihydroartemisinin] |  | IC50 [5]: 0.00966 µM
 |  | CC1CCC2C(C)[C@@H](Oc3ccc(CN4CCC(N5CCCCC5)CC4)cc3)OC3OC4(C)CCC1C32OO4 (stereo partly drawn) [Example 6, (10S)—O-[4-[(4-(piperidinyl)piperidin-1-yl)methyl]phenyl]-dihydroartemisinin] | 0.079 µM | 
 |  | C[C@H]1[C@@H](Oc2ccc(/C=C/C(=O)N3CCN(C)CC3)cc2)O[C@@H]2O[C@@]3(C)CC[C@H]4[C@H](C)CC[C@@H]1[C@@]24OO3 [Example 24] |  | IC50 [3]: 0.299 µM; IC50 [4]: 0.918 µM
0.211 µM | 65 to 67 °C | C[C@H]1[C@@H](Oc2ccc(Cn3ccnc3)cc2)O[C@@H]2O[C@]3(C)CC[C@H]4[C@H](C)CC[C@@H]1[C@@]24OO3 [Example 2, (10S)—O-[4-((imidazol-1-yl)methyl)phenyl]-dihydroartemisinin] |  | IC50 [5]: 0.631 µM
 |  | CC1CCC2C(C)[C@@H](Oc3ccc(CN4CCN(c5ccccc5)CC4)cc3)OC3OC4(C)CCC1C32OO4 (stereo partly shown) [Example 10] | 0.033 µM | IC50 [3]: 0.07 µM; IC50 [4]: 0.088 µM
 |  | CCN1CCN(C(=O)/C=C/c2ccc(O[C@H]3OC4OC5(C)CCC6C(C)CCC(C3C)C46OO5)cc2)CC1 (stereo partly drawn) [Example 25, (10S)—O-{4-[3-oxo-3-(4-ethylpiperazin-1-yl)-1-(E)-propen-1-yl]phenyl}-dihydroartemisinin] |  | IC50 [3]: 0.152 µM; IC50 [4]: 0.223 µM
 |  | C[C@H]1[C@@H](Oc2ccc(CN3CCCCC3)cc2)O[C@@H]2O[C@]3(C)CC[C@H]4[C@H](C)CC[C@@H]1[C@@]24OO3 [Example 5, (10S)—O-[4-((piperidin-1-yl)methyl)phenyl]-dihydroartemisinin] |  | IC50 ([1]; Homo sapiens): 0.228 µM; IC50 ([3]; Mus musculus): 0.88 µM; IC50 ([4]; Mus musculus): 0.804 µM

Source: patent publication US9718837B2, “Nitrogen-containing heterocyclic ring substituted dihydroartemisinin derivatives and use thereof” (Shenyang Pharmaceutical University, priority 2013, dated 2017)
